From patent US6492427B2, “Methods for treating multiple sclerosis” (priority 1998, dated 2002)
“Also recorded” adds a separate entry of the source. Like-named read-outs stand apart in the source and are kept apart here.

Tests used:
[1] = tested on: oligodendroglial cells; assay: Total counts of intact methylene blue stained cells; type: cell-based, rat; conditions: BM-D9 (10^−9 M), 24 h
Experimental: Cells were trophically withdrawn by replacing the media with a serum free, chemically-defined base media (BM) lacking insulin and IGF-I (Bottenstein et al., 1988). The base media consisited of DMEM supplemented with penicillin (50 IU/ml); streptomycin (50 μg/ml); 1 mM sodium pyruvate; 50 μg/ml transferrin; 0.005 μg/ml sodium selenite; 16 μg/ml putrescine; 0.006 μg/ml progesterone and 0.1 mg/ml bovine serum albumin. All the cells were washed with BM twice before exposing them to individual treatment conditions. Control cells were washed and placed in BM supplemented with 2.5 ng/ml IGF-I and 5 μg/ml insulin to form the insulin media (IM).
To study the effects of trophic-like agents on the survival of oligodendroglial […].
Methylene blue (3,7-bis (dimethylamino)-phenothiazin-5-ium chloride), a ribonucleic acid (RNA) binding agent commonly used as an alternative nucleic acid stain, can also be used as a biological staining agent to stain cells in order to observe their morphological features. […]
(§1) Cell counts were performed for 25 randomly chosen 100 power fields on each coverslip. […] Three coverslips was counted for each treatment condition. In subsequent experiments, different cell types (for example, O-2A progenitors, PROLs, OLs and astrocytes) were morphologically identified on each field and were counted separately for experimental series-I and II. […]

[2] = tested on: O-2As; assay: Methylene blue counts of individual cell types: O-2As; type: cell-based, rat; conditions: BM-D9, 24 h
Experimental: Methylene blue (3,7-bis (dimethylamino)-phenothiazin-5-ium chloride), a ribonucleic acid (RNA) binding agent commonly used as an alternative nucleic acid stain, can also be used as a biological staining agent to stain cells in order to observe their morphological features. At 24 h, cells were fixed in 2% paraformaldehyde for 15 min at room temperature. Briefly, cells were washed twice with PBS and 100 μl of 1% methylene blue (Mallinckrodt Chemical Co., MO, USA) solution containing 1% AgNO3 was added for 10 min to the wells containing coverslips. Subsequently, the coverslips were washed with two changes of distilled water and absolute ethanol, cleared with xylene and mounted on slides with permount.
as §1, with “coverslip. Two randomly generated coordinates drawn from a uniform distribution of random numbers specified the center of each field. The random numbers were generated on a computer by using Microcal Origin 4.0 program.” for “coverslip.”

[3] = tested on: MBP, PLP, GC and CNPase-I; assay: Western blot of PROL and OL marker proteins; type: cell-based, rat; conditions: BM + 10^−9 M, 18 h
[4] = tested on: mitochondrial membrane potential (ΔψM) of oligodendroglial cells; assay: CMTMR estimation of mitochondrial membrane potential by confocal microscopy; type: cell-based, rat; conditions: BM + 10^−9 M, 18 h
Experimental: The ΔψM was assessed by the addition of a lipophilic, potentiometric dye, chloromethyl-tetramethylrhodamine methyl ester (CMTMR, Mitotracker Orange™ Molecular Probes, Eugene, Oreg.). The CMTMR dye reacts with the thiol groups on proteins and peptides to form aldehyde fixable conjugates. Entry of the negatively charged mitochondrial matrix compartment is proportional to the difference in the membrane potential. Therefore, the CMTMR fluorescence labels the mitochondrial membrane potential generated due to the negativity difference between the mitochondrial matrix and the outside of the mitochondria. Upon cell fixation, CMTMR remains in the mitochondria and is not washed out unlike other mitochondrial potentiometric dyes like rhodamine123.
Oligodendrocytes at 16 DIV were placed in trophically deprived BM for 18 h or treated with BM-D9 or BM-Ds9. […] The cells were incubated in CMTMR at 37° C. for 15 min. The cells were then fixed with 4% cold paraformaldehyde on ice for 30 min and washed twice with 0.1M PBS. Consequently, the coverslips were mounted on glass slides with Aquamount (Gurr, England).
Individual mitochondria labeled with CMTMR were resolved by confocal microscopy. A Leica true confocal scanning (TCS) 4D microscope coupled to an argon-krypton laser (Omnichrome, USA) was used for cell imaging. A pinhole size of 20 with an excitation filter wavelength of 568 nm and an emission filter wavelength of 590 nm was used to image the CMTMR labeled mitochondria. Each field of the coverslip was imaged using an oil-immersion, 100 X, 1.3 N.A. objective at 512 by 512 by 8 bits per pixel resolution, background offset of −1 and line averaged 32 times in bi-directional line scan mode. Care was taken not to exceed the dynamic range of the gray value display. The confocal images obtained were saved on an optical drive in a tagged image file format (TIFF).
Fluorescence intensity of individual mitochondria was measured using the Metamorph™ program. Metamorph™ compiles measurements of objects in a 8-bit image ranging from gray values 0 (background) and 255. In order to obtain fluorescence intensity measures, a rectangular region tool of 2×2 pixels was used to measure two randomly selected areas within each mitochondrion. A total of ten mitochondria obtained equally from all the regions of each cell were measured within each image. About 20 images were analyzed for each treatment condition thereby giving a sum of about 400 mitochondrial fluorescence intensity measures. The raw values were then further graphed and analyzed with the Microcal Origin 4.1 program. Frequency count was performed on the data, which classified the data in ordered bins. A frequency distribution was obtained with lower bin value set at 0 and higher bin value set at 260.

[5] = tested on: CA1 hippocampal neurons; conditions: cited from earlier work
[6] = tested on: CA1, CA3 and CA4 hippocampal neurons; conditions: 0.25 mg/kg daily, multiple time points up to 14 days (Paterson et al., 1997); cited from earlier work
[7] = pH about 3-5 vs pH about 7; cited from earlier work

With C#CCN(C)[C@H](C)Cc1ccccc1 [(−)-deprenyl, R-(−)-N,α-Dimethyl-N-2-propynyl phenethylamine] the “number of intact methylene blue stained cells, % of those in BM” value ([1]; experimental series-I) was 576%, the “number of intact methylene blue stained cells, % of those in BM” value ([1]; experimental series-II) was 255% and the “O-2A cell numbers compared to those in BM” value ([2]; experimental series II) was 176%. The “O-2A cell numbers compared to those in BM” value ([2]; experimental series-I) was 244%, the “band densities for MBP, CNP-ase I and PLP compared to IM” value [3] was “exceed those for IM” and the “immunodensity of marker proteins (MBP, PLP, GC, CNPase-I) compared to BM” value [3] was “marked increase in immunodensity compared to BM”. The “mitochondrial CMTMR fluorescence distributions (ΔψM) in ASTs, PROLs and OLs” value [4] was “not significantly different to those found for IM; also recorded: prevented the decrease in ΔψM”, the “CA1 hippocampal neuronal survival” value ([5]; 0.25 mg/kg, days 3 or 7 (Lahtinen et al., 1997)) was “significant increase in survival at both time points” and the “CA1 hippocampal neuronal survival” value ([5]; 10 mg/kg daily from 1-2 hours after 5 minutes occlusion, day 4 (Ballabriga et al., 1997)) was “no increase in survival”. For the same molecule, the “CA1, CA3 and CA4 hippocampal neuronal survival” value [6] was “markedly significant increases in neuronal survival” and the “stability depending on pH of the medium” value [7] was “more stable at a pH in the range of about 3-5 than at a pH of about 7”.
